In PubChem BioAssay (NCI) one finds GI50 and TGI data, which are given here for ten molecules.

Test systems include OVCAR-3 ovarian; LOX IMVI melanoma; SR leukemia; IGROV1 ovarian; A498 renal; MDA-MB-435; SW-620 colon; NCI-H23 lung; RPMI-8226 leukemia; NCI-H226 lung.
Common to all, as to test: NCI-60 cell line screen, 48 h

Where “and” joins values, the source holds several entries; their conditions need not be identical. Equal entries are not always repeated.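 Protocol summary: plate cells (96-well), add compound at 5 concentrations, incubate 48 h, interpolate endpoints linearly. GI50 = concentration required for 50% inhibition of growth. The concentration for full growth arrest is given as TGI.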 Where only a bound is given, the exact number is not on record here.

Turning to `CCSc1nc(N)c2cnn(CC)c2n1`, the GI50 in the assay with OVCAR-3 ovarian was 4.59 µM; with LOX IMVI melanoma it was 2.23 µM; with SR leukemia, 2.27 µM; in the assay on IGROV1 ovarian, 2.14 µM; in the assay on A498 renal, 3.7 µM; in the assay on MDA-MB-435, 7.64 µM. Also, the GI50 in the assay with SW-620 colon is 3.8 µM; in the assay on NCI-H23 lung, 10.3 µM; in the assay with RPMI-8226 leukemia it was 2.38 µM; in the assay with NCI-H226 lung, 3.41 µM. In addition, the TGI in the assay with OVCAR-3 ovarian is 42.6 µM; in the assay with LOX IMVI melanoma it was 8 µM; with SR leukemia, 48.9 µM; in the assay on IGROV1 ovarian, 9.13 µM; in the assay on A498 renal, 22.8 µM; with MDA-MB-435, 37.8 µM. Moreover, the TGI in the assay on SW-620 colon is 18.2 µM; with NCI-H23 lung, 22 µM; with RPMI-8226 leukemia, 6.44 µM; in the assay with NCI-H226 lung, 30.9 µM.
Consider `Cn1cccc1-c1cc(-c2ccccc2)nc(N)c1C#N`, for which the GI50 is greater than 67.7 µM in the assay with OVCAR-3 ovarian; greater than 100 µM in the assay on LOX IMVI melanoma; 40.8 µM with SR leukemia; greater than 100 µM in the assay with IGROV1 ovarian; 36.8 µM in the assay with A498 renal; greater than 100 µM with MDA-MB-435. Moreover, the GI50 in the assay with SW-620 colon was greater than 100 µM; in the assay on NCI-H23 lung, greater than 100 µM; with RPMI-8226 leukemia, 55.9 µM; in the assay with NCI-H226 lung, greater than 46.4 µM. Further, the TGI in the assay with OVCAR-3 ovarian, with LOX IMVI melanoma, in the assay on SR leukemia, in the assay with IGROV1 ovarian, in the assay on A498 renal and in the assay on MDA-MB-435 was greater than 100 µM in each case. The TGI with SW-620 colon, in the assay with NCI-H23 lung, in the assay on RPMI-8226 leukemia and in the assay with NCI-H226 lung was greater than 100 µM each time.
Regarding `O=C1/C(=C/c2ccc(O)cc2)Oc2ccccc21`, the TGI in the assay on OVCAR-3 ovarian, in the assay on LOX IMVI melanoma, with SR leukemia, in the assay with IGROV1 ovarian, in the assay on A498 renal and in the assay on MDA-MB-435 was greater than 100 µM in each case. For the same molecule, the TGI with SW-620 colon, in the assay with NCI-H23 lung, in the assay on RPMI-8226 leukemia and in the assay on NCI-H226 lung was greater than 100 µM each time.
Regarding `CS(=O)(=O)CCNCc1ccoc1-c1ccc2ncnc(Nc3ccc(OCc4ccccc4)cc3)c2c1`, the GI50 in the assay on OVCAR-3 ovarian was greater than 25 µM; in the assay on LOX IMVI melanoma, greater than 25 µM; in the assay on SR leukemia, greater than 16.9 µM; with IGROV1 ovarian it was greater than 17 µM; with A498 renal, 20.5 µM; with MDA-MB-435, greater than 25 µM. Moreover, the GI50 in the assay on SW-620 colon, with NCI-H23 lung, with RPMI-8226 leukemia and in the assay on NCI-H226 lung was greater than 25 µM throughout. The TGI in the assay with OVCAR-3 ovarian, in the assay on LOX IMVI melanoma, with SR leukemia, in the assay with IGROV1 ovarian, in the assay with A498 renal and in the assay on MDA-MB-435 was greater than 25 µM throughout. Further, the TGI with SW-620 colon, in the assay on NCI-H23 lung, in the assay with RPMI-8226 leukemia and with NCI-H226 lung was greater than 25 µM in each case.
As for `COC(=O)Nc1nc2ccc(C(=O)c3cccs3)cc2[nH]1`, the GI50 is 0.0192 µM and 0.0664 µM in the assay with OVCAR-3 ovarian; 0.536 µM in the assay with LOX IMVI melanoma; 0.019 µM and 0.0327 µM in the assay on SR leukemia; 0.594 µM in the assay on IGROV1 ovarian; 0.203 µM with A498 renal; 0.029 µM in the assay on MDA-MB-435. The GI50 in the assay on SW-620 colon is 0.0672 µM; in the assay on NCI-H23 lung it was 0.277 µM; in the assay on RPMI-8226 leukemia, 0.407 µM; with NCI-H226 lung, 0.275 µM. Further, the TGI with LOX IMVI melanoma is greater than 100 µM; in the assay on SR leukemia it was 5.98 µM; with IGROV1 ovarian it was 36.5 µM and > 100 µM; with A498 renal, 1.58 µM; with MDA-MB-435, 0.158 µM and 0.102 µM; in the assay on SW-620 colon it was greater than 100 µM. In addition, the TGI in the assay on NCI-H23 lung is 0.602 µM; with NCI-H226 lung, 1.26 µM and 2.54 µM.
Regarding `NC1=C(O)C(=O)C(c2c[nH]c3ccc(OCc4ccccc4)cc23)O1` (stereo not drawn), the TGI in the assay on OVCAR-3 ovarian, with LOX IMVI melanoma, with SR leukemia, in the assay with IGROV1 ovarian, in the assay on A498 renal and with MDA-MB-435 was greater than 100 µM each time. Also, the TGI in the assay with SW-620 colon, in the assay on NCI-H23 lung, in the assay with RPMI-8226 leukemia and in the assay on NCI-H226 lung was greater than 100 µM throughout.
In the case of `O=C(/C=C/c1ccc(Cl)cc1Cl)c1ccc(Cl)cc1Cl`, the GI50 is 20.6 µM with OVCAR-3 ovarian; 15.8 µM in the assay with LOX IMVI melanoma; 3.33 µM in the assay with SR leukemia; 22.3 µM in the assay on IGROV1 ovarian; 20.7 µM in the assay with A498 renal; 16.7 µM in the assay with MDA-MB-435. Further, the GI50 with SW-620 colon was 9.22 µM; in the assay on NCI-H23 lung, 20.5 µM; with RPMI-8226 leukemia it was 4.22 µM; in the assay on NCI-H226 lung, 19.9 µM. Besides, the TGI in the assay with OVCAR-3 ovarian amounted to 48.1 µM; in the assay with LOX IMVI melanoma it was 30.1 µM; in the assay on SR leukemia it was 14.9 µM; with IGROV1 ovarian, 55.8 µM; in the assay on A498 renal, 48.5 µM; in the assay with MDA-MB-435 it was 35.3 µM. In addition, the TGI is 47.3 µM in the assay on SW-620 colon, 67.2 µM with NCI-H23 lung, 17.8 µM in the assay with RPMI-8226 leukemia and 40.8 µM in the assay with NCI-H226 lung.
For the molecule `CCN(CC)CCNc1ccc([N+](=O)[O-])c2nc3ccc(OC)cc3c(N)c12`, the TGI amounted to 3.55 µM with OVCAR-3 ovarian; 0.344 µM in the assay with LOX IMVI melanoma; 0.972 µM in the assay on SR leukemia; 1.21 µM with IGROV1 ovarian; 3.08 µM with A498 renal; 2.98 µM with MDA-MB-435. Moreover, the TGI with SW-620 colon was 0.772 µM; in the assay on NCI-H23 lung, 3.53 µM; in the assay with RPMI-8226 leukemia it was 0.704 µM; with NCI-H226 lung it was 4.41 µM.
Regarding `Nc1ccn(C2CC3OCC3O2)c(=O)n1` (stereo not drawn), the TGI in the assay on OVCAR-3 ovarian, in the assay on LOX IMVI melanoma, with SR leukemia, in the assay with IGROV1 ovarian, in the assay with A498 renal and in the assay with MDA-MB-435 was greater than 100 µM throughout. Moreover, the TGI in the assay with SW-620 colon, in the assay with NCI-H23 lung, with RPMI-8226 leukemia and with NCI-H226 lung was greater than 100 µM in each case.
On to `CNC(=O)c1cc(-c2ccc(F)cc2)cc(-c2ccc(S(=O)(=O)N3CCCC3)cc2)c1N`, for which the GI50 with OVCAR-3 ovarian was 18.2 µM; in the assay with LOX IMVI melanoma it was greater than 25 µM; in the assay on SR leukemia, greater than 25 µM; in the assay on IGROV1 ovarian, greater than 25 µM; in the assay on A498 renal, 5.25 µM; with MDA-MB-435, greater than 25 µM. For the same molecule, the GI50 in the assay with SW-620 colon is 18.6 µM; with NCI-H23 lung, greater than 25 µM; with RPMI-8226 leukemia, 10.1 µM; in the assay with NCI-H226 lung, greater than 25 µM. In addition, the TGI in the assay with OVCAR-3 ovarian, in the assay on LOX IMVI melanoma, in the assay with SR leukemia, in the assay with IGROV1 ovarian, with A498 renal and in the assay on MDA-MB-435 was greater than 25 µM in each case. For the same molecule, the TGI in the assay on SW-620 colon, in the assay on NCI-H23 lung, in the assay with RPMI-8226 leukemia and in the assay with NCI-H226 lung was greater than 25 µM throughout.
